Source: patent US20250074905A1, “AKT3 MODULATORS” (Georgiamune Inc., priority 2021, published 2025)

Tested on: Foxp3 induction in CD4 conventional T cells (iTreg induction)
Assay: Foxp3 induction assay
Assay type: cell-based, C57/B16 mice
Settings: T-cell, 72 h; mouse CD4 Tconvs, anti-CD3/anti-CD28, IL2, TGF-β, 3 days of culture, flow cytometry; read-out: IC50 value as measured by the Foxp3 induction assay
Protocol: Sorted or enriched (Miltenyi magnetic separation) CD4 conventional T cells (Tconvs −CD4+/CD25) from C57/B16 mice were used for the induction of iTregs. A 10 µg/mL plate-bound anti-CD3 antibody (50 ul per well for 96-well plate), […] of soluble anti-CD28 antibody, 100 IU/mL of IL2 and 5 ng/mL of TGF-β in absence or presence of different concentrations of drug (usually titrating from 0.01 uM to 10 uM) were used. As negative control for induction, samples without TGF-β were used.
After 3 days of culture in presence of stimulation, TGF-β and drug, cells were stained with fixable live/dead cell stain (Life Technologies, NY) for gating and exclusion of toxic doses. The mouse Foxp3 buffer kit was used to fix and permeabilize cells according to the manufacturer's instructions (BD Bioscience, San Jose, CA). The anti-CD4 antibody and anti-Foxp3 antibody were used to stain the cells. After staining, cells were acquired using flow cytometer.

IC50: < 1000 nM
SMILES: O=C(Nc1ccc2c(c1)Nc1ccncc1CC2)c1ccc(Nc2ccncc2)cc1 [Compound 1, N-(10,11-dihydro-5H-benzo[b]pyrido[3,4-f]azepin-7-yl)-4-(pyridin-4-ylamino)benzamide]
